Experimental data from the NIST ThermoML archive (doi:10.1021/acs.jced.5b00116).
± gives the expanded uncertainty stated by the source.

Test: activity coefficient (dimensionless); of the first substance listed, at infinite dilution; wn = mass fraction of the nth substance listed
Settings: 101 kPa, Liquid, Chromatography, w1 = 0

| SMILES | activity coefficient (313.15 K) | activity coefficient (333.15 K) | activity coefficient (353.15 K) | activity coefficient (373.15 K) | activity coefficient (393.15 K) |
| --- | --- | --- | --- | --- | --- |
| CCO [ethanol] + OCC(O)CO | 4.76 ± 0.5 | 3.98 ± 0.42 | 3.73 ± 0.39 | 3.52 ± 0.37 | 3.25 ± 0.34 |
| O [water] + OCC(O)CO | 0.73 ± 0.08 | 0.75 ± 0.08 | 0.78 ± 0.08 | 0.79 ± 0.08 | 0.8 ± 0.08 |
